This note sets out measurements from ChEMBL document CHEMBL5038633 (J Med Chem, 2022).

The target of experiment [1] is Sodium channel protein type 9 subunit alpha (Homo sapiens, UniProt Q15858). The experiment is described as follows: Inhibition of human Nav1.7 stably expressed in cells with train pulses to -20 mV at 0.1 Hz and holding potential of -95 mV by Qube-automated patch clamp assay. Type of experiment: cell-based.
Experiment [2] addresses Sodium channel protein type 4 subunit alpha (Homo sapiens, UniProt P35499). The experiment is described as follows: Inhibition of human Nav1.4 stably expressed in cells with train pulses to -20 mV at 0.1 Hz and holding potential of -95 mV by whole-cell Qube-automated patch clamp assay. It counts as cell-based. (The patch-clamp technique gives a direct electrical read-out from membranes.)

In experiment [3] the target is Sodium channel protein type 8 subunit alpha (Homo sapiens, UniProt Q9UQD0). Nature of the experiment: Inhibition of human Nav1.6 stably expressed in cells with train pulses to -20 mV at 0.1 Hz and holding potential of -85 mV by whole-cell Qube-automated patch clamp assay. It counts as cell-based.
Experiment [4] in a line: Inhibition of mast cell degranulation in Wistar Han rat peritoneal lavage mast cells assessed as inhibition histamine release by measuring lowest concentration at which histamine release observed measured after 30 mins. Type of experiment: functional. Particulars: 0.5 h.

Where a SMILES comes first, the peptide text is derived from it. Bridges are numbered along the chain shown (N, C = ends).

Sodium channel protein type 4 subunit alpha, sequence (P35499 whole entry): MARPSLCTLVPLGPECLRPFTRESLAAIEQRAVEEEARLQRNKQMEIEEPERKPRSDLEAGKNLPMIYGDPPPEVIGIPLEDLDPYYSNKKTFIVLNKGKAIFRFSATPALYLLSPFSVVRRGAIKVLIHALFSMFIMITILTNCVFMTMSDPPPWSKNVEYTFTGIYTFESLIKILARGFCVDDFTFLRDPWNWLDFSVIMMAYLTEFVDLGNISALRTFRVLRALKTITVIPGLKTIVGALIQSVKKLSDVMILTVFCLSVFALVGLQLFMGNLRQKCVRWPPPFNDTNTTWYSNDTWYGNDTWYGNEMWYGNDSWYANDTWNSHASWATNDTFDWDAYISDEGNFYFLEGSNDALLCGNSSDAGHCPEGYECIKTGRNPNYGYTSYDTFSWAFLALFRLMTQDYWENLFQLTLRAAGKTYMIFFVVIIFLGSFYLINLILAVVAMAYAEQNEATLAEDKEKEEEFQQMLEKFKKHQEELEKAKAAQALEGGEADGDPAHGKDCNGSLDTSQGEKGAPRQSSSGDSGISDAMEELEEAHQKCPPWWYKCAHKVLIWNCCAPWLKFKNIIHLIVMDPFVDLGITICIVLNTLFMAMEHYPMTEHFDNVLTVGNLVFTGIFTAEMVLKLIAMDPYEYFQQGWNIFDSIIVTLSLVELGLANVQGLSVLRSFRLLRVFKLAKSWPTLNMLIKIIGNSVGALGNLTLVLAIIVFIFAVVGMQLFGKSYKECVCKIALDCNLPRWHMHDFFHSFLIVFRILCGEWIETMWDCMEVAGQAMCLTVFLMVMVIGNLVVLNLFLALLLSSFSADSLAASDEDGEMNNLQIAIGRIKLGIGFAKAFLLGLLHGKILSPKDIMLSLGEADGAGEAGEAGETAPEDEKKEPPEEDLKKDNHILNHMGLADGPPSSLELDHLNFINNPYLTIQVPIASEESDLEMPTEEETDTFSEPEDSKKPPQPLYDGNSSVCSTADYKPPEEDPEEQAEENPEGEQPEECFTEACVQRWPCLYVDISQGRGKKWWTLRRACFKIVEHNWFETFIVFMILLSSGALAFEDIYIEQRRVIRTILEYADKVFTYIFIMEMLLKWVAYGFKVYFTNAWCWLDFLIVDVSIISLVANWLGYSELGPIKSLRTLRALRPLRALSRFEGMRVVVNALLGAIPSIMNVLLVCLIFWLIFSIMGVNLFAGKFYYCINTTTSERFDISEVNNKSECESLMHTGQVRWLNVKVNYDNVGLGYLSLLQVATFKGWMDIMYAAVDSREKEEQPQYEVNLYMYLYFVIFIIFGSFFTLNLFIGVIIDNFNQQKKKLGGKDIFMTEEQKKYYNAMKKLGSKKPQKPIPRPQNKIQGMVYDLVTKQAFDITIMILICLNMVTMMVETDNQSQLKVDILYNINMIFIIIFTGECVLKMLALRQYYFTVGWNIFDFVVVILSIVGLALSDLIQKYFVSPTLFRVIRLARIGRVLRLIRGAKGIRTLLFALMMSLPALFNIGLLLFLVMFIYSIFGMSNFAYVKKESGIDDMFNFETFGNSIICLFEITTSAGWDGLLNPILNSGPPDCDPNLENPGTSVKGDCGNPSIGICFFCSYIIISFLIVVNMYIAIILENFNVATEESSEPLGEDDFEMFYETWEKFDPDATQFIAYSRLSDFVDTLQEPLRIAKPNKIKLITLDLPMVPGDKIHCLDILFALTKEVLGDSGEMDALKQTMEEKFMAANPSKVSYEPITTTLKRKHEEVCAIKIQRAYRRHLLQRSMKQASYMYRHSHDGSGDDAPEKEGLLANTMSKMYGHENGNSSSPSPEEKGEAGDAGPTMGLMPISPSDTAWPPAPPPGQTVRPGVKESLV
Sodium channel protein type 9 subunit alpha, sequence (Q15858 whole entry): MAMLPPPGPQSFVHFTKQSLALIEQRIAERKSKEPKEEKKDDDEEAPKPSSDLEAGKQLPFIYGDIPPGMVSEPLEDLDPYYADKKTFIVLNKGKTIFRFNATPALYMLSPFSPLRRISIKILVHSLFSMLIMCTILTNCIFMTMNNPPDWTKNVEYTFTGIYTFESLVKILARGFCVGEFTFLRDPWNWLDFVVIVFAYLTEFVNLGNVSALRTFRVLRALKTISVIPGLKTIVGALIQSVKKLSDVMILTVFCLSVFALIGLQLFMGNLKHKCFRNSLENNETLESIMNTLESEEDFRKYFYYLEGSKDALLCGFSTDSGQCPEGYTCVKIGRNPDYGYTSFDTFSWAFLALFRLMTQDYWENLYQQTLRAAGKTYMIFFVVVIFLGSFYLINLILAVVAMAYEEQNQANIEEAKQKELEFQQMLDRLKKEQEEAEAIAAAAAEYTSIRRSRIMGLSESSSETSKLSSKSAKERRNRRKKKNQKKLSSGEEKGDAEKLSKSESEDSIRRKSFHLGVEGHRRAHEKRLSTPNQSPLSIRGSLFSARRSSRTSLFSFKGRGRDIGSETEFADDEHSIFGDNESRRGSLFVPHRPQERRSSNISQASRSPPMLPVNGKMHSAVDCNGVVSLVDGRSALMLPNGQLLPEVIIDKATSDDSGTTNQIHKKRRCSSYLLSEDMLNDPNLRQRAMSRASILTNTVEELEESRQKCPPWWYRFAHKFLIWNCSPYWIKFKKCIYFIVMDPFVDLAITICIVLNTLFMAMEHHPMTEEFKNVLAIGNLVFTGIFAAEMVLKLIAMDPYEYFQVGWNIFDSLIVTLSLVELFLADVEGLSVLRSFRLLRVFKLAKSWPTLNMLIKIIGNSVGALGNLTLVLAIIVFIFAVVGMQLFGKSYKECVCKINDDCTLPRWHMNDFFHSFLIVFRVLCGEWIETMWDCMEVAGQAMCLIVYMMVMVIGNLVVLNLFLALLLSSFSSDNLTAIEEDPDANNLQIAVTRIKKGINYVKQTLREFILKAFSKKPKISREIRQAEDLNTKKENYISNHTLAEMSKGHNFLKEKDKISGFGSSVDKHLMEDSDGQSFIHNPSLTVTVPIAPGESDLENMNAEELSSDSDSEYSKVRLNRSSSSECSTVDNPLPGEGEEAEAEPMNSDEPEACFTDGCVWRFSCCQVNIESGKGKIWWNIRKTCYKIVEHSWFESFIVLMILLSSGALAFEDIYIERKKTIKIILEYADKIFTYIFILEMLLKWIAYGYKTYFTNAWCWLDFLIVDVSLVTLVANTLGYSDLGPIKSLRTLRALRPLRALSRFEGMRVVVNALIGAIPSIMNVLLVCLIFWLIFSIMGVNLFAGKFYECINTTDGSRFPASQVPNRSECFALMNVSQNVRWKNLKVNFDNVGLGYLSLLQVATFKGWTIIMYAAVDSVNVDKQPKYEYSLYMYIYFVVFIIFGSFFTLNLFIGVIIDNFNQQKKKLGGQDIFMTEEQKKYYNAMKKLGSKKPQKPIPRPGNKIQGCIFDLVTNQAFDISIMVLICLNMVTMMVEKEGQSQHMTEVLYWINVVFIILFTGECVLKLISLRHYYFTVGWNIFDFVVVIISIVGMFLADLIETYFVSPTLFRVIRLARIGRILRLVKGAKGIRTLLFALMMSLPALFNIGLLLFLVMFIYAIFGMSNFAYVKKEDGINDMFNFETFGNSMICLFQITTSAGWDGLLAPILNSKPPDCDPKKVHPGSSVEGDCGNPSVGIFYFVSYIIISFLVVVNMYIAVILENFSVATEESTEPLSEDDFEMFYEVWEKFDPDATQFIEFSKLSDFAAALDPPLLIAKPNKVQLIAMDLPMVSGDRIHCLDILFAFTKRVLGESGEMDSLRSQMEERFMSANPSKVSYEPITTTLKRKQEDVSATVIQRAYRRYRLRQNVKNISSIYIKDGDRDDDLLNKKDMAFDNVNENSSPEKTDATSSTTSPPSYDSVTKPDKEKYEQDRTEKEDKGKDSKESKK

The IC50 is the concentration needed to halve the response being measured. A high value points to weaker potency in that assay. On to `CC(=O)N[C@H]1CSSC[C@@H]2NC(=O)[C@@H]3CSSC[C@@H](C(=O)N[C@@H](CCCCN)C(=O)N[C@@H](CCCCN)C(=O)N[C@@H](CCCCN)C(=O)N[C@@H](CC(C)C)C(=O)N[C@@H](Cc4c[nH]c5ccccc45)C(N)=O)NC(=O)[C@H](Cc4c[nH]c5ccccc45)NC(=O)[C@H](CC(C)C)NC(=O)[C@H](CCCNC(=N)N)NC(=O)[C@H](CSSC[C@H](NC(=O)[C@@H]4CCCN4C(=O)[C@H](C)NC(=O)[C@H](CC(C)C)NC(=O)[C@H](Cc4ccccc4)NC(=O)[C@H](CCCCN)NC(=O)[C@H](CCC(N)=O)NC1=O)C(=O)N[C@@H](CC(=O)O)C(=O)N[C@@H](CO)C(=O)N[C@@H](CCC(=O)O)C(=O)N[C@@H](CCCNC(=N)N)C(=O)N[C@@H](CCCCN)C(=O)N3)NC(=O)[C@H](CCC(=O)O)NC(=O)[C@H](CC(C)C)NC(=O)CNC(=O)[C@H](CCC(=O)O)NC2=O` (Ac-CQKFLAPCDSERKCCEGLECRLWCKKKLW-NH2; disulfide 1-15, 8-20, 14-24), for which the IC50 is 0.042 µM in experiment [1], greater than 17 µM in experiment [2] and greater than 17 µM in experiment [3]. Also, the LED in experiment [4] turned out to be 3.3 µM.

As to `CC(=O)N[C@H]1CSSC[C@@H]2NC(=O)[C@@H]3CSSC[C@@H](C(=O)N[C@@H](CCCCN)C(=O)N[C@@H](CCCCN)C(=O)N[C@@H](CCCCN)C(=O)N[C@@H](CC(C)C)C(=O)N[C@@H](Cc4c[nH]c5ccccc45)C(N)=O)NC(=O)[C@H](Cc4c[nH]c5ccccc45)NC(=O)[C@H](CC(C)C)NC(=O)[C@H](C(C)C)NC(=O)[C@H](CSSC[C@H](NC(=O)[C@@H]4CCCN4C(=O)[C@H](C)NC(=O)[C@H](CC(C)C)NC(=O)[C@H](Cc4ccccc4)NC(=O)[C@H](CCCCN)NC(=O)[C@H](CCC(N)=O)NC1=O)C(=O)N[C@@H](CC(=O)O)C(=O)N[C@@H](CO)C(=O)N[C@@H](CCC(=O)O)C(=O)N[C@@H](CCCNC(=N)N)C(=O)N[C@@H](CCCCN)C(=O)N3)NC(=O)[C@H](CCC(=O)O)NC(=O)[C@H](CC(C)C)NC(=O)CNC(=O)[C@H](CCC(=O)O)NC2=O` (Ac-CQKFLAPCDSERKCCEGLECVLWCKKKLW-NH2; disulfide 1-15, 8-20, 14-24), the IC50 is 0.232 µM in experiment [1], greater than 17 µM in experiment [2] and greater than 17 µM in experiment [3]. For the same compound, in experiment [4], the LED amounted to 30 µM.

With `CC(=O)N[C@H]1CSSC[C@@H]2NC(=O)[C@@H]3CSSC[C@@H](C(=O)N[C@@H](CCCCN)C(=O)N[C@@H](CCCCN)C(=O)N[C@@H](CCCCN)C(=O)N[C@@H](CC(C)C)C(=O)N[C@@H](Cc4c[nH]c5ccccc45)C(N)=O)NC(=O)[C@H](Cc4c[nH]c5ccccc45)NC(=O)[C@H](CC(C)C)NC(=O)[C@H](CCCNC(=N)N)NC(=O)[C@H](CSSC[C@H](NC(=O)[C@@H]4CCCN4C(=O)[C@H](C)NC(=O)[C@H](CC(C)C)NC(=O)[C@H](Cc4ccccc4)NC(=O)[C@H](CCCCN)NC(=O)[C@H](CCC(N)=O)NC1=O)C(=O)N[C@@H](CC(=O)O)C(=O)N[C@@H](CO)C(=O)N[C@@H](CCC(=O)O)C(=O)N[C@@H](CCCNC(=N)N)C(=O)N[C@@H](CCCCN)C(=O)N3)NC(=O)[C@H](C(C)C)NC(=O)[C@H](CC(C)C)NC(=O)CNC(=O)[C@H](CCC(=O)O)NC2=O` (Ac-CQKFLAPCDSERKCCEGLVCRLWCKKKLW-NH2; disulfide 1-15, 8-20, 14-24), the IC50 came out at 0.02 µM in experiment [1], 1.24 µM in experiment [2] and 1.23 µM in experiment [3]. The LED in experiment [4] was 3.3 µM.

Turning to `CC(=O)N[C@H]1CSSC[C@@H]2NC(=O)[C@@H]3CSSC[C@@H](C(=O)N[C@@H](CCCCN)C(=O)N[C@@H](CCCCN)C(=O)N[C@@H](CCCCN)C(=O)N[C@@H](CC(C)C)C(=O)N[C@@H](Cc4c[nH]c5ccccc45)C(N)=O)NC(=O)[C@H](Cc4c[nH]c5ccccc45)NC(=O)[C@H](CC(C)C)NC(=O)[C@H](CCCCN)NC(=O)[C@H](CSSC[C@H](NC(=O)[C@@H]4CCCN4C(=O)[C@H](CCC(=O)O)NC(=O)[C@H](CC(C)C)NC(=O)[C@H](Cc4ccccc4)NC(=O)[C@H](CCCCN)NC(=O)[C@H](CCC(N)=O)NC1=O)C(=O)N[C@@H](CC(=O)O)C(=O)N[C@@H](CCC(=O)O)C(=O)N[C@@H](CCC(=O)O)C(=O)N[C@@H](CCCNC(=N)N)C(=O)N[C@@H](CCCCN)C(=O)N3)NC(=O)[C@H](C(C)C)NC(=O)[C@H](CC(C)C)NC(=O)CNC(=O)[C@H](CCC(=O)O)NC2=O` (Ac-CQKFLEPCDEERKCCEGLVCKLWCKKKLW-NH2; disulfide 1-15, 8-20, 14-24), the values for the IC50 in experiment [1], in experiment [2] and in experiment [3] were 0.218 µM, greater than 17 µM and greater than 17 µM, respectively. Besides, in experiment [4], the LED came to 10 µM.

Consider `CC(=O)N[C@H]1CSSC[C@@H]2NC(=O)[C@@H]3CSSC[C@@H](C(=O)N[C@@H](CCCCN)C(=O)N[C@@H](CCCCN)C(=O)N[C@@H](CCCCN)C(=O)N[C@@H](CC(C)C)C(=O)N[C@@H](Cc4c[nH]c5ccccc45)C(N)=O)NC(=O)[C@H](Cc4c[nH]c5ccccc45)NC(=O)[C@H](CC(C)C)NC(=O)[C@H](CCCNC(=N)N)NC(=O)[C@H](CSSC[C@H](NC(=O)[C@@H]4CCCN4C(=O)[C@H](CCC(=O)O)NC(=O)[C@H](CC(C)C)NC(=O)[C@H](Cc4ccccc4)NC(=O)[C@H](CCCCN)NC(=O)[C@H](CCC(N)=O)NC1=O)C(=O)N[C@@H](CC(=O)O)C(=O)N[C@@H](CO)C(=O)N[C@@H](CCC(=O)O)C(=O)N[C@@H](CCCNC(=N)N)C(=O)N[C@@H](CCCCN)C(=O)N3)NC(=O)[C@H](CCC(=O)O)NC(=O)[C@H](CC(C)C)NC(=O)CNC(=O)[C@H](CCC(=O)O)NC2=O` (Ac-CQKFLEPCDSERKCCEGLECRLWCKKKLW-NH2; disulfide 1-15, 8-20, 14-24), for which the values for the IC50 in experiment [1], in experiment [2] and in experiment [3] were 0.097 µM, greater than 17 µM and greater than 17 µM, respectively. For the same compound, the LED in experiment [4] is 10 µM.

Consider `CC(=O)N[C@H]1CSSC[C@@H]2NC(=O)[C@@H]3CSSC[C@@H](C(=O)N[C@@H](CCCCN)C(=O)N[C@@H](CCCCN)C(=O)N[C@@H](CCCCN)C(=O)N[C@@H](CC(C)C)C(=O)N[C@@H](Cc4c[nH]c5ccccc45)C(N)=O)NC(=O)[C@H](Cc4c[nH]c5ccccc45)NC(=O)[C@H](CC(C)C)NC(=O)[C@H](CCCNC(=N)N)NC(=O)[C@H](CSSC[C@H](NC(=O)[C@@H]4CCCN4C(=O)[C@H](CCC(=O)O)NC(=O)[C@H](CC(C)C)NC(=O)[C@H](Cc4ccccc4)NC(=O)[C@H](CCCCN)NC(=O)[C@H](CCC(N)=O)NC1=O)C(=O)N[C@@H](CC(=O)O)C(=O)N[C@@H](CO)C(=O)N[C@@H](CCC(=O)O)C(=O)N[C@@H](CCCNC(=N)N)C(=O)N[C@@H](CCCCN)C(=O)N3)NC(=O)[C@H](C(C)C)NC(=O)[C@H](CC(C)C)NC(=O)CNC(=O)[C@H](CCC(=O)O)NC2=O` (Ac-CQKFLEPCDSERKCCEGLVCRLWCKKKLW-NH2; disulfide 1-15, 8-20, 14-24), for which the IC50 in experiment [1] was 0.043 µM; in experiment [2] it was 4.77 µM; in experiment [3] it was 3.94 µM. In experiment [4], the LED came to 3.3 µM.
